Assay results taken from US20180194762A1 (Pharmacyclics LLC, priority 2017, published 2018).

target: T1, Btk (Homo sapiens, UniProt Q06187); experiment: Btk in vitro inhibitory activity (one of Method A TR-FRET, Method B electrophoretic mobility shift, Method C radiometric filter binding); type: biochemical; details: method is one of A, B or C, not stated which; read-out: IC50 values against Btk
T1 construct: purified from insect cells as a full-length construct containing a N-terminal 6X-His tag; His6 (N); made in house; host or cells: insect cells (Method C)
T1 sequence (Q06187 whole entry): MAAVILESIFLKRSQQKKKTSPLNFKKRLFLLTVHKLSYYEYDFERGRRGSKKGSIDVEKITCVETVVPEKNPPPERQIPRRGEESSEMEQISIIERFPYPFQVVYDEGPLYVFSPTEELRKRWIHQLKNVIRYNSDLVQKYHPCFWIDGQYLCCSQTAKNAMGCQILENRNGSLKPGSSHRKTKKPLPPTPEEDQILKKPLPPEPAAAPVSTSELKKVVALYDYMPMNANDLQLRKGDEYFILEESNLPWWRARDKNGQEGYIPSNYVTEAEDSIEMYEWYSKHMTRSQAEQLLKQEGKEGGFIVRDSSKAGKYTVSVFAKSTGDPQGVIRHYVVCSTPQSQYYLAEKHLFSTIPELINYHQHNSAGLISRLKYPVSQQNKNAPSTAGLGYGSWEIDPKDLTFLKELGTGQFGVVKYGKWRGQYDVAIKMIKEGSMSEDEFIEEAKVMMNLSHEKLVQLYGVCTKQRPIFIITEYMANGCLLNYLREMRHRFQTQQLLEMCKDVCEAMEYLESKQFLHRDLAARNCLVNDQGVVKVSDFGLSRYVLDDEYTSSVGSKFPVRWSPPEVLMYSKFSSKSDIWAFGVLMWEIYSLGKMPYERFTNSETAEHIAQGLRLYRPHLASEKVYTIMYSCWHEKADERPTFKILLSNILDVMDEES
Method: Example 62a: Btk In Vitro Inhibitory Activity (Method A)
Btk kinase activity is determined using a time-resolved fluorescence resonance energy transfer (TR-FRET) methodology. Measurements are performed in a reaction volume of 50 μL using 96-well assay plates. […] The reaction is quenched by the addition of 1.2 equivalents of EDTA (relative to divalent cation) in 25 μL of 1× Lance buffer (Perkin-Elmer). Streptavidin-APC (Perkin-Elmer) and Eu-labeled p-Tyr100 antibody (Perkin-Elmer) in 1× Lance buffer are added in a 25 μL volume to give final concentrations of 100 nM and 2.5 nM, respectively, and the mixture is allowed to incubate for one hour. The TR-FRET signal is measured on a multimode plate reader with an excitation wavelength (λEx) of 330 nm and detection wavelengths (λEm) of 615 and 665 nm. Activity is determined by the ratio of the fluorescence at 665 nm to that at 615 nm. For each compound, enzyme activity is measured at various concentrations of compound. Negative control reactions are performed in the absence of inhibitor in replicates of six, and two no-enzyme controls are used to determine baseline fluorescence levels. Inhibition constants, Ki(app), were obtained using the program BatchKi (Kuzmic et al. (2000), Anal. Biochem. 286:45-50). IC50s are obtained according to the equation:
IC50={Ki(app)/(1+[ATP]/Km^ATP)}+[E]total/2;
For all kinases, [ATP]=Km^ATP, [Btk]total=0.5 nM and [Lck]total=6 nM.
Example 62b: Btk In Vitro Inhibitory Activity (Method B)
Kinase activity is measured in vitro using electrophoretic mobility shift assay. The kinase reactions are assembled in a total volume of 25 μL in 384 well plates. The reactions comprise: BTK enzyme (1 nM, N-terminal His6-tagged, recombinant, full-length, human BTK purified from baculovirus Sf21 insect cell system, 293HEK, or other suitable source), inhibitor, ATP, fluorescently labeled peptide substrate (1 μM, FAM-GEEPLYWSFPAKKK-NH2) in a reaction buffer composed of 100 mM HEPES, pH7.5, 5 mM MgCl2 1 mM DTT, 0.1% bovine serum albumin, 0.01% Triton X-100, and 1% DMSO. The reaction is incubated and is quenched by the addition of termination buffer (100 mM HEPES, pH 7.5, 0.01% Triton X-100, 30 mM EDTA). The terminated reactions are analyzed using a 12 channel LabChip® 3000 microfluidic detection instrument (Caliper Life Sciences). The enzymatic phosphorylation of the peptide results in a change in net charge, enabling electrophoretic separation of product from substrate peptide. As substrate and product peptides are separated, two peaks of fluorescence are observed. Change in the relative fluorescence intensity of the substrate and product peaks is the parameter measured, reflecting enzyme activity. In the presence of an inhibitor, the ratio between product and substrate is altered: the signal of the product decreases, while the signal of the substrate increases.
Activity in each sample is determined as the product to sum ratio (PSR):P/(S+P), where P is the peak height of the product peptide and S is the peak height of the substrate peptide. For each compound, enzyme activity is measured at various concentrations (12 concentrations of compound spaced by 3× dilution intervals). Negative control samples (0%—inhibition in the absence of inhibitor) and positive control samples (100%—inhibition, in the presence of 20 mM EDTA) are assembled in replicates of four and are used to calculate %—inhibition values for each inhibitor at each concentration. Percent inhibition (Pinh) is determined using following equation:
Pinh=(PSR0%−PSRinh)/(PSR0%−PSR100%)*100, where PSRinh is the product sum ratio in the presence of inhibitor, PSR0% is the average product sum ration in the absence of inhibitor and PSR100% is the average product sum ratio in 100%—inhibition control samples.
The IC50 values of inhibitors are determined by 4 parameter sigmoidal dose-response model fitting of the inhibition curves (Pinh versus inhibitor concentration) using XLfit 4 software. […]

IC50 [nM]	SMILES
< 10	CC(C)(C)c1nc(C(=O)NCc2ccc(-c3ccnc4[nH]nc(NC5CCNC5)c34)cc2F)no1 (stereo in doubt) [Example 50]
< 10	C=CC(=O)N1CC[C@@H](Nc2n[nH]c3nccc(-c4ccc(C5(NC(=O)c6noc(C(C)(C)C)n6)CC5)cc4)c23)C1 [Example 4, 5-tert-butyl-N-{1-[4-(3-{[(3R)-1-(prop-2-enoyl)pyrrolidin-3-yl]amino}-1H-pyrazolo[3,4-b]pyridin-4-yl)phenyl]cyclopropyl}-1,2,4-oxadiazole-3-carboxamide]
< 10	C=CC(=O)N1CC[C@@H](Nc2n[nH]c3nccc(-c4ccc(CNC(=O)c5ccc(C(C)(C)C)cc5)c(F)c4)c23)C1 [Example 6, 4-tert-butyl-N-{[2-fluoro-4-(3-{[(3R)-1-(prop-2-enoyl)pyrrolidin-3-yl]amino}-1H-pyrazolo[3,4-b]pyridin-4-yl)phenyl]methyl}benzamide]
< 10	CC#CC(=O)N1CC[C@@H](Nc2n[nH]c3nccc(-c4ccc(CNC(=O)c5ccc(C(C)(C)C)cc5)c(F)c4)c23)C1 [Example 7, N-{[4-(3-{[(3R)-1-(but-2-ynoyl)pyrrolidin-3-yl]amino}-1H-pyrazolo[3,4-b]pyridin-4-yl)-2-fluorophenyl]methyl}-4-tert-butylbenzamide]
< 10	C=CC(=O)N1CC[C@@H](Nc2n[nH]c3nccc(-c4cccc(NC(=O)c5ccc(C(C)(C)C)cc5)c4C)c23)C1 [Example 9, 4-tert-butyl-N-[2-methyl-3-(3-{[(3R)-1-(prop-2-enoyl)pyrrolidin-3-yl]amino}-1H-pyrazolo[3,4-b]pyridin-4-yl)phenyl]benzamide]
< 10	C=CC(=O)N1CC[C@@H](Nc2n[nH]c3nccc(-c4cccc(-n5ccc6cc(C7CC7)cc(F)c6c5=O)c4CO)c23)C1 [Example 18, 6-cyclopropyl-8-fluoro-2-[2-(hydroxymethyl)-3-(3-{[(3R)-1-(prop-2-enoyl)pyrrolidin-3-yl]amino}-1H-pyrazolo[3,4-b]pyridin-4-yl)phenyl]-1,2-dihydroisoquinolin-1-one]
< 10	C=CC(=O)N1CC[C@@H](Nc2n[nH]c3nccc(-c4ccc(CNC(=O)c5ccccc5)c(F)c4)c23)C1 [Example 33, N-{[2-fluoro-4-(3-{[(3R)-1-(prop-2-enoyl)pyrrolidin-3-yl]amino}-1H-pyrazolo[3,4-b]pyridin-4-yl)phenyl]methyl}benzamide]
< 10	C=CC(=O)N1CC[C@@H](Nc2n[nH]c3nccc(-c4ccc(CNC(=O)c5ccc(C)cc5)c(F)c4)c23)C1 [Example 34, N-{[2-fluoro-4-(3-{[(3R)-1-(prop-2-enoyl)pyrrolidin-3-yl]amino}-1H-pyrazolo[3,4-b]pyridin-4-yl)phenyl]methyl}-4-methylbenzamide]

same assay, conditions: wild-type Btk; read-out: Btk-WT IC50

IC50 [nM]	SMILES
31	C[C@@H](NC(=O)c1nc(C(C)(C)C)no1)c1ccc(-c2ccnc3[nH]nc(NC4CCCCC4)c23)cc1 [Example 202, 3-tert-butyl-N-[(1R)-1-{4-[3-(cyclohexylamino)-1H-pyrazolo[3,4-b]pyridin-4-yl]phenyl}ethyl]-1,2,4-oxadiazole-5-carboxamide]
145	CC(C)(C)c1noc(C(=O)NCc2ccc(-c3ccnc4[nH]nc(N5CCCC5=O)c34)cc2F)n1 [Example 245, 3-tert-butyl-N-({2-fluoro-4-[3-(2-oxopyrrolidin-1-yl)-1H-pyrazolo[3,4-b]pyridin-4-yl]phenyl}methyl)-1,2,4-oxadiazole-5-carboxamide]
64.6	C[C@H]1CC[C@@H](Nc2n[nH]c3nccc(-c4ccc(CNC(=O)c5noc(C(C)(C)C)n5)cc4CO)c23)CN1C(=O)N(C)C [Example 251, (2S,5R)-5-({4-[4-{[(5-tert-butyl-1,2,4-oxadiazole-3-carbonyl)amino]methyl}-2-(hydroxymethyl)phenyl]-1H-pyrazolo[3,4-b]pyridin-3-yl}amino)-N,N,2-trimethylpiperidine-1-carboxamide]
26.3	CC(C)(C)c1nc(C(=O)NCc2ccc(-c3ccnc4[nH]nc(OC5CCNC5)c34)cc2F)no1 (centres unmarked) [Example 269, 5-tert-butyl-N-[(2-fluoro-4-{3-[(pyrrolidin-3-yl)oxy]-1H-pyrazolo[3,4-b]pyridin-4-yl}phenyl)methyl]-1,2,4-oxadiazole-3-carboxamide]
81.4	C[C@H](NC(=O)c1noc(C(C)(C)C)n1)c1ccc(-c2ccnc3[nH]nc(N[C@@H]4CCNC4)c23)cc1F [Example 290, 5-tert-butyl-N-{(1S)-1-[2-fluoro-4-(3-{[(3R)-pyrrolidin-3-yl]amino}-1H-pyrazolo[3,4-b]pyridin-4-yl)phenyl]ethyl}-1,2,4-oxadiazole-3-carboxamide]

target: T2, TEC (Homo sapiens, UniProt P42680); experiment: Inhibition of a panel of kinases (in vitro HotSpot kinase assay, 33P-ATP, 1 μM ATP); type: biochemical; details: HotSpot kinase assay, 1 μM ATP
T2 sequence (P42680 1-631): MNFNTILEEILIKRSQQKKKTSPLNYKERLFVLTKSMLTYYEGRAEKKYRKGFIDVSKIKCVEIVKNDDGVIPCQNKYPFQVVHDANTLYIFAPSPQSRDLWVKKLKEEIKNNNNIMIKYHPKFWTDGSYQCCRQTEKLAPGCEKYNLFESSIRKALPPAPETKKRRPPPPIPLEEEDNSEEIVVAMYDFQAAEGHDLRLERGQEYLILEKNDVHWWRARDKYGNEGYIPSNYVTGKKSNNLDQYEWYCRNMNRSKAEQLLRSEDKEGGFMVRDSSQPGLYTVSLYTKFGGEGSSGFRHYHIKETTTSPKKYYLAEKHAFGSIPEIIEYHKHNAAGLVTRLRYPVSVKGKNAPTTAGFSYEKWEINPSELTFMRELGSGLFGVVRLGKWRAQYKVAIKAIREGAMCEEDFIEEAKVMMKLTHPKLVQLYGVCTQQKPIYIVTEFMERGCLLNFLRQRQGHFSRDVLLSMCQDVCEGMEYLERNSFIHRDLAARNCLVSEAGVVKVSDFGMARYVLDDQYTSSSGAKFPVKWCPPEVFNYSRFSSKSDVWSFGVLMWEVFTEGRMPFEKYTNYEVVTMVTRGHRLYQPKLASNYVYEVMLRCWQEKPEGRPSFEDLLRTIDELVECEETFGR
Method: Example 63: Inhibition of a Panel of Kinases The degree of inhibition of a panel of kinases is determined using the in vitro HotSpot kinase assay (purified enzymes, ^33P-ATP, an appropriate substrate and 1 μM ATP).

IC50 [nM]	SMILES
9680	C=CC(=O)N1CC[C@@H](Nc2n[nH]c3nccc(-c4ccnc(NC(=O)c5noc(C(C)(C)C)n5)c4C)c23)C1 [Example 288, 5-tert-butyl-N-[3-methyl-4-(3-{[(3R)-1-(prop-2-enoyl)pyrrolidin-3-yl]amino}-1H-pyrazolo[3,4-b]pyridin-4-yl)pyridin-2-yl]-1,2,4-oxadiazole-3-carboxamide]

same assay, conditions: ratio of TEC IC50 to Btk IC50 (selectivity)

TEC/Btk	SMILES
10	CC(C)(C)c1ccc(C(=O)Nc2cccc(-c3ccnc4[nH]nc(N[C@H]5CC[C@H](O)CC5)c34)c2)cc1 [Compound 13, 4-tert-butyl-N-[3-(3-{[(1r,4r)-4-hydroxycyclohexyl]amino}-1H-pyrazolo[3,4-b]pyridin-4-yl)phenyl]benzamide]
10	Cc1c(NC(=O)c2ccc(C(C)(C)C)cc2)cccc1-c1ccnc2[nH]nc(N[C@H]3CC[C@H](O)CC3)c12 [Compound 14, 4-(tert-butyl)-N-(3-(3-(((1r,4r)-4-hydroxycyclohexyl)amino)-1H-pyrazolo[3,4-b]pyridin-4-yl)-2-methylphenyl)benzamide]
10	CC(C)(C)c1ccc(C(=O)Nc2ccc(-c3ccnc4[nH]nc(N[C@H]5CC[C@H](O)CC5)c34)cc2F)cc1 [Compound 15, 4-tert-butyl-N-[2-fluoro-4-(3-{[(1r,4r)-4-hydroxycyclohexyl]amino}-1H-pyrazolo[3,4-b]pyridin-4-yl)phenyl]benzamide]
